According to patent publication US11401264B2, “Heterocyclic compound” (Orizuru Therapeutics, Inc., priority 2018, dated 2022):

Test system: cardiomyocytes from double knock-in human iPS cell lines (mCherry at TNNI3 locus)
Experiment: Experimental Example 1: mCherry (TNNI3 reporter) immunostaining measured by high contents screening
Type: cell-based
Design: key to average fluorescent intensity (at 30 μM): —: The symbol in Table 2 means that the average fluorescent intensity cannot be evaluated due to cell decrease
Settings: read on 8th day, Alexa 647 anti-mCherry, control well 797; for average fluorescent intensity (at 1 μM): test compound 1 μM added on 3rd and 6th culture days; for average fluorescent intensity (at 30 μM): test compound 30 μM added on 3rd and 6th culture days
Experimental: For detection of cardiomyocyte maturation, double knock-in human iPS cell lines, in which reporter protein sequences, EmGFP (Sequence Number 1) and mCherry (Sequence Number 2) were inserted into gene loci for TNNI1 and TNNI3, respectively, were prepared (the human iPS cells were prepared from episomal vector (loaded gene; OCT3/4, KLF4, SOX2, L-MYC, LIN28, mouse p53DD) using PBMC (LP_167, Sample ID: 20130318) purchased from CTL (reference literature; Okita K, et al. Stem Cells. 2012 Nov. 29. doi: 10.1002/stem.1293)).
The maintenance culture of the above-mentioned reporter iPS cell lines was carried out by a conventional method (Okita K, et al. Stem Cells. 2012 Nov. 29. doi: 10.1002/stem.1293).
For differentiation induction into cardiomyocytes, the reporter iPS cell lines were treated with 0.5×TrypLE select (Life Technologies, diluted in 1/2 with 0.5 mM EDTA/PBS) for 4 to 5 minutes, and the cells were exfoliated using a cell scraper (IWAKI), and then dissociated into the single cell by pipetting. The medium was removed by centrifugation (1,000 rpm, 5 min), and the obtained cells were seeded on a bioreactor (ABLE) by 1×10^7 cells per 30 mL of the bioreactor, and then cultured in a medium prepared by adding 1% L-glutamine, transferrin 150 μg/mL, ascorbic acid 50 μg/mL (Sigma), monothioglycerol 4×10^−4 M, 10 μM Rock inhibitor (Y-27632), 2 ng/mL BMP4 (R&D) and 0.5% Matrigel (Growth Factor Reduced) to a medium after removal of solution C from StemFit AK02 (AJINOMOTO AK02, 400 mL of solution A and 100 mL of B solution, total 500 mL), at 37° C., under 5% oxygen condition (55 rpm, stirred suspension culture method) to form embryoid bodies (0 day).
Next day (1st day), 9 μL (final concentration 3 ng/mL) of 10 μg/mL activin A, 15 μL (final concentration 5 ng/mL) of 10 μg/mL bFGF and […] (final concentration 10 ng/mL) of 10 μg/mL BMP4 were added to the bioreactor, and the cells were cultured at 37° C. for additional 2 days, under 5% oxygen condition.
Then (3rd day), the obtained embryoid bodies were collected in a 50 mL centrifuge tube, and then subjected to centrifugation (200 g, 1 min). The medium was removed, and the embryoid bodies were cultured in a medium prepared by adding 1% L-glutamine, transferrin 150 μg/mL, ascorbic acid 50 μg/mL (Sigma), monothioglycerol 4×10^−4 M, 10 ng/mL VEGF, 1 μM IWP-3, 0.6 μM dorsomorphin and 5.4 μM SB431542 to a medium after removal of solution C from StemFit AK02 (AJINOMOTO AK02, 400 mL of solution A and 100 mL of B solution, total 500 mL), at 37° C. for 3 days, under 5% oxygen condition (55 rpm, stirred suspension culture method).
Then (6th day), the bioreactor was left to stand to precipitate the embryoid bodies, and 80 to 90% of the medium was removed. A medium prepared by adding 1% L-glutamine, transferrin 150 μg/mL, ascorbic acid 50 μg/mL (Sigma), monothioglycerol […] and 5 ng/mL VEGF to a medium after removal of solution C from StemFit AK02 (AJINOMOTO AK02, 400 mL of solution A and 100 mL of B solution, total 500 mL) was added to the bioreactor so that the total volume became 30 mL, and the embryoid bodies were cultured for 8 days, at 37° C., under 5% oxygen condition (55 rpm, stirred suspension culture method). During the culture, the medium was replaced with a medium under the same conditions every 2 to 3 days.
14th Day after the start of the differentiation induction, the embryoid bodies were treated with 2 mg/mL collagenase type I (Sigma) for 2 hr, and then with 0.25% trypsin/EDTA (Invitrogen) for 10 min. 50% FBS/IMDM (Thermo Fisher Science) was added thereto, and the embryoid bodies were dissociated into the single cell by pipetting, and then subjected to centrifugation (1,000 rpm, 5 minutes). […]

SMILES | average fluorescent intensity (at 1 μM) | average fluorescent intensity (at 30 μM)
O=C1c2ccc(N3CCCCC3)cc2CN1c1ccc2[nH]c(-c3ccccc3)nc2c1 [Example 1, 2-(2-phenyl-1H-benzimidazol-5-yl)-5-(piperidin-1-yl)isoindolin-1-one] | 1098 | —
O=C1c2ccc(N3CCCCC3)cc2CN1c1ccc2[nH]c(Cc3ccccc3)nc2c1 [Example 2, 2-(2-benzyl-1H-benzimidazol-5-yl)-5-(piperidin-1-yl)isoindolin-1-one] | 943 | 1073
O=C1c2ccc(N3CCCCC3)cc2CN1c1ccc2[nH]c(-c3ccc(OCc4ccccc4)cc3)nc2c1 [Example 3, 2-(2-(4-(benzyloxy)phenyl)-1H-benzimidazol-5-yl)-5-(piperidin-1-yl)isoindolin-1-one] | 933 | 1441
COC(=O)COc1ccc(-c2nc3cc(N4Cc5cc(N6CCCCC6)ccc5C4=O)ccc3[nH]2)cc1 [Example 5, methyl (4-(5-(l-oxo-5-(piperidin-1-yl)-1,3-dihydro-2H-isoindol-2-yl)-1H-benzimidazol-2-yl)phenoxy)acetate] | 1078 | —
O=C(O)COc1ccc(-c2nc3cc(N4Cc5cc(N6CCCCC6)ccc5C4=O)ccc3[nH]2)cc1 [Example 6, (4-(5-(l-oxo-5-(piperidin-1-yl)-1,3-dihydro-2H-isoindol-2-yl)-1H-benzimidazol-2-yl)phenoxy)acetic acid] | 974 | 987
COc1ccc(-c2nc3cc(N4Cc5ccccc5C4=O)ccc3[nH]2)cc1 [Example 7, 2-(2-(4-methoxyphenyl)-1H-benzimidazol-5-yl)isoindolin-1-one] | 859 | 1631
O=C(COc1ccc(-c2nc3cc(N4Cc5cc(N6CCCCC6)ccc5C4=O)ccc3[nH]2)cc1)NC/C=C/CCc1ccccc1 [Example 9, 2-(4-(5-(1-oxo-5-(piperidin-1-yl)-1,3-dihydro-2H-isoindol-2-yl)-1H-benzimidazol-2-yl)phenoxy)-N-((2E)-5-phenylpent-2-en-1-yl)acetamide] | 948 | —
O=C(COc1ccc(-c2nc3cc(N4Cc5cc(N6CCCCC6)ccc5C4=O)ccc3[nH]2)cc1)NCCNc1cccc(F)c1 [Example 10, N-(2-((3-fluorophenyl)amino)ethyl)-2-(4-(5-(1-oxo-5-(piperidin-1-yl)-1,3-dihydro-2H-isoindol-2-yl)-1H-benzimidazol-2-yl)phenoxy)acetamide] | 1032 | —
CN(CCc1ccccc1)C(=O)CNC(=O)COc1ccc(-c2nc3cc(N4Cc5cc(N6CCCCC6)ccc5C4=O)ccc3[nH]2)cc1 [Example 11, N-methyl-N^~2^~-((4-(5-(1-oxo-5-(piperidin-1-yl)-1,3-dihydro-2H-isoindol-2-yl)-1H-benzimidazol-2-yl)phenoxy)acetyl)-N-(2-phenylethyl)glycinamide] | 1182 | —
O=C(COc1ccc(-c2nc3cc(N4Cc5cc(N6CCCCC6)ccc5C4=O)ccc3[nH]2)cc1)NCCCc1ccncc1 [Example 12, 2-(4-(5-(1-oxo-5-(piperidin-1-yl)-1,3-dihydro-2H-isoindol-2-yl)-1H-benzimidazol-2-yl)phenoxy)-N-(3-(pyridin-4-yl)propyl)acetamide] | 1675 | 1226
CN(C)C(=O)C(NC(=O)COc1ccc(-c2nc3cc(N4Cc5cc(N6CCCCC6)ccc5C4=O)ccc3[nH]2)cc1)c1ccccc1 (centres unmarked) [Example 13, N,N-dimethyl-2-(((4-(5-(1-oxo-5-(piperidin-1-yl)-1,3-dihydro-2H-isoindol-2-yl)-1H-benzimidazol-2-yl)phenoxy)acetyl)amino)-2-phenylacetamide] | 1212 | —
CN(C(=O)COc1ccc(-c2nc3cc(N4Cc5cc(N6CCCCC6)ccc5C4=O)ccc3[nH]2)cc1)C1CCOCC1 [Example 14, N-methyl-2-(4-(5-(1-oxo-5-(piperidin-1-yl)-1,3-dihydro-2H-isoindol-2-yl)-1H-benzimidazol-2-yl)phenoxy)-N-(tetrahydro-2H-pyran-4-yl)acetamide] | 2143 | 2012
CC1(O)CCN(C(=O)COc2ccc(-c3nc4cc(N5Cc6cc(N7CCCCC7)ccc6C5=O)ccc4[nH]3)cc2)CC1 [Example 15, 2-(2-(4-(2-(4-hydroxy-4-methylpiperidin-1-yl)-2-oxoethoxy)phenyl)-1H-benzimidazol-5-yl)-5-(piperidin-1-yl)isoindolin-1-one] | 1701 | 2697
O=C(COc1ccc(-c2nc3cc(N4Cc5cc(N6CCCCC6)ccc5C4=O)ccc3[nH]2)cc1)N1CCS(=O)(=O)C1 [Example 16] | 1366 | 3604
CC1(NC(=O)COc2ccc(-c3nc4cc(N5Cc6cc(N7CCCCC7)ccc6C5=O)ccc4[nH]3)cc2)CC1 [Example 18, N-(1-methylcyclopropyl)-2-(4-(5-(1-oxo-5-(piperidin-1-yl)-1,3-dihydro-2H-isoindol-2-yl)-1H-benzimidazol-2-yl)phenoxy)acetamide] | 1272 | 1704
O=C(COc1ccc(-c2nc3cc(N4Cc5cc(N6CCCCC6)ccc5C4=O)ccc3[nH]2)cc1)Nc1ccc(F)cc1 [Example 19, N-(4-fluorophenyl)-2-(4-(5-(1-oxo-5-(piperidin-1-yl)-1,3-dihydro-2H-isoindol-2-yl)-1H-benzimidazol-2-yl)phenoxy)acetamide] | 1292 | 860
O=C(COc1ccc(-c2nc3cc(N4Cc5cc(N6CCCCC6)ccc5C4=O)ccc3[nH]2)cc1)Nc1ccccc1F [Example 20, N-(2-fluorophenyl)-2-(4-(5-(1-oxo-5-(piperidin-1-yl)-1,3-dihydro-2H-isoindol-2-yl)-1H-benzimidazol-2-yl)phenoxy)acetamide] | 1685 | 
O=C(COc1ccc(-c2nc3cc(N4Cc5cc(N6CCCCC6)ccc5C4=O)ccc3[nH]2)cc1)Nc1ccc(Cl)cc1 [Example 21, N-(4-chlorophenyl)-2-(4-(5-(1-oxo-5-(piperidin-1-yl)-1,3-dihydro-2H-isoindol-2-yl)-1H-benzimidazol-2-yl)phenoxy)acetamide] | 1120 | —
